Bridge positions count the residues as written; N and C are the ends. Square brackets hold non-standard residues; d marks the D form. Peptide text beside a SMILES is read from it. Nspe = C[C@H](NCC(=O)O)c1ccccc1; Nlys = NCCCCNCC(=O)O
Tested on: E. coli strain (CJW7845)
Experiment: Time-lapse single-cell phenotyping of inner/outer membrane permeabilization to proteins and growth arrest in microwells
Type: cell-based, Escherichia coli
Set-up: key to Class (timing of growth arrest relative to IM permeabilization to proteins): Class I AMPs and PMs cause growth arrest predominantly associated with inner membrane (IM) permeabilization; class II compounds inhibit growth without substantial IM permeabilization
Conditions: for Class (timing of growth arrest relative to IM permeabilization to proteins) / Type (relative timing of OM and IM permeabilization) / OM-permeabilized cells among IM-permeabilized cells: 2X MIC; for Class (timing of growth arrest relative to IM permeabilization to proteins) / Type (relative timing of OM and IM permeabilization): CJW7845, M9gluCAAT, 37°C, time-lapse microscopy; for OM-permeabilized cells among IM-permeabilized cells: CJW7845, during the experiment; for OM-permeabilized cells (out of all IM-permeabilized cells): 10X MIC, CJW7845
Procedure: For experiments with PDMS microwells, cells were allowed to grow for ~30 min in the temperature-controlled enclosure prior to imaging. A 10X concentrated AMP solution was spiked in (at 1/10 the volume of the well) and mixed well by pipetting after ~20 min from the start of the image acquisition, without interrupting the timelapse sequence. When the uptake of SYTOX Green was monitored, SYTOX Green was included in the AMP solution and spiked in during the experiment to obtain a final concentration of SYTOX Green of 50 nM in the well. This allowed us to monitor healthy cell growth prior to AMP treatment, to rapidly set the desired AMP (or SYTOX Green) concentration from one frame to the next (unlike for flow-controlled injection systems), and to resolve the AMP-induced phenotype in real time. The current design allows for testing up to four independent conditions in parallel.
To analyse the single-cell experiments in microwells, OmniSegger software (https://github.com/tlo-bot/omnisegger), which combines SuperSegger MATLAB-based suite ([Stylianidou et al., 2016]) for cell analysis with Omnipose segmentation ([Cutler et al., 2022]), was used to first process the microscopy images by performing drift correction, cell segmentation, and cell linking. Given that AMP-treated cells can display extreme phenotypes, such as exceedingly bright and/or heterogeneous phase contrast signal (likely a result of the widely changing intracellular density upon AMP treatment) and that the software’s pre-trained model bact_phase_omni ([Cutler et al, 2022]) tended to split cells before cell division was completed, a new Omnipose model was trained from scratch starting from bact_phase_omni-generated masks that were further corrected and curated using custom-made Python scripts (screening_good_bad.py and generate_training_dataset.py). Details on the Omnipose model retraining can be found in a previous publication ([Thappeta et al., 2025]). The final model (omnipose_phase_microwells_model) and corresponding training datasets are available at https://github.com/JacobsWagnerLab/published/tree/master/Fragasso_et_al_2025 and BioImage Archive (accession number: S-BIAD1823), respectively.
MATLAB files of the linked cell trajectories output from OmniSegger were then imported, background subtracted using background_subtraction.py, which was adapted from a previous study ([Papagiannakis et al., 2025]), and converted to Python data structures (import_processing_code.py), from which cell features such as cell area, nucleoid area, mean fluorescence intensity, etc., were extracted for each cell at each frame. The exported dataframes were further processed to estimate instantaneous growth rates and were run through a series of functions to perform curation based on cell areas and instantaneous growth rates over time (post_processing_curation_functions.py). […] Represented data points were pooled from multiple replicates.
Analysis of strain CJW7845 proceeded by extracting the timings of permeabilization of the outer and inner membranes based on the mean fluorescence intensities of mScarlet-I and/or mTagBFP2 fluorescent proteins (using function get_permeabilization_time.py), cell growth arrest, and the initiation time of growth inhibition. To obtain accurate timings underlying membrane permeabilization events, information from both the signal intensity itself as well as its derivative were combined, which enabled us to accurately resolve the relevant changes in fluorescent protein signal beyond the intrinsic high-frequency noise and low-frequency photobleaching. Inner membrane permeabilization to proteins can result in two possible phenotypes when simultaneously monitoring freely diffusing periplasmic and cytoplasmic probes, depending on which membrane (outer or inner) becomes permeabilized first. When the outer membrane is first permeabilized, mScarlet-I signal is lost first, followed by mTagBFP2 when the inner membrane becomes also permeabilized. […]

SMILES | Class (timing of growth arrest relative to IM permeabilization to proteins) | Type (relative timing of OM and IM permeabilization) | OM-permeabilized cells among IM-permeabilized cells | OM-permeabilized cells (out of all IM-permeabilized cells) | Cells in which the IM became permeabilized (concentrations close to the MIC (2X MIC))
CC[C@H](C)[C@@H]1NC(=O)CNC(=O)[C@H](CCCNC(=N)N)NC(=O)[C@H](Cc2ccc(O)cc2)NC(=O)[C@@H]2CSSC[C@H](NC1=O)C(=O)N[C@@H](Cc1ccc(O)cc1)C(=O)N[C@@H](CCCNC(=N)N)C(=O)N[C@@H](CCCNC(=N)N)C(=O)N[C@H](C(=O)N[C@@H](CCCNC(=N)N)C(N)=O)CSSC[C@H](NC(=O)[C@H](Cc1c[nH]c3ccccc13)NC(=O)[C@@H](N)CCCCN)C(=O)N[C@@H](Cc1ccccc1)C(=O)N[C@@H](CCCNC(=N)N)C(=O)N[C@@H](C(C)C)C(=O)N2 [Tac1, tachyplesin-1] (H-KWCFRVCYRGICYRRCR-NH2; disulfide 3-16, 7-12 (inferred); N-terminus assumed) | I | A (type A AMPs predominantly permeabilize the outer membrane (OM) within 10 min of the IM) | 273/273 | 82/128 | –
C[C@@H](c1ccccc1)N(CC(N)=O)C(=O)CN(C(=O)CN(CCCCN)C(=O)CN(C(=O)CN(C(=O)CN(CCCCN)C(=O)CN(C(=O)CN(C(=O)CN(CCCCN)C(=O)CN(C(=O)CN(C(=O)CNCCCCN)[C@@H](C)c1ccccc1)[C@@H](C)c1ccccc1)[C@@H](C)c1ccccc1)[C@@H](C)c1ccccc1)[C@@H](C)c1ccccc1)[C@@H](C)c1ccccc1)[C@@H](C)c1ccccc1 [TM1] (H-[Nlys][Nspe][Nspe][Nlys][Nspe][Nspe][Nlys][Nspe][Nspe][Nlys][Nspe][Nspe]-NH2) | I | B (type B AMPs and PMs permeabilize the IM well before (>10 min) the OM) | 24/97 | 77/171 | –
CC[C@@H](C)[C@@H](NC(=O)[C@@H](C)NC(=O)[C@@H](CCCNC(=N)N)NC(=O)[C@@H](Cc1c[nH]c2ccccc12)NC(=O)[C@@H](CCC(N)=O)NC(=O)[C@H](N)C(C)C)C(=O)N[C@H](CCCNC(=N)N)C(=O)N[C@@H](C(=O)N[C@H](CCCNC(=N)N)C(=O)N[C@@H](C(=O)N[C@@H](C(=O)N[C@H](CCCNC(=N)N)C(N)=O)[C@H](C)CC)C(C)C)C(C)C [DJK-5] (H-[dV][dQ][dW][dR][dA][dI][dR][dV][dR][dV][dI][dR]-NH2; N-terminus and C-terminus assumed) | II | B (type B AMPs and PMs permeabilize the IM well before (>10 min) the OM) | 81/151 | – | > 60%
